Measurements reported in US20210371817A1, “COMPOSITIONS AND METHODS FOR PRECISE PATTERNING OF POSTERIOR NEUROECTODERM FROM HUMAN PLURIPOTENT STEM CELLS” (WISCONSIN ALUMNI RESEARCH FOUNDATION, priority 2013, published 2021).

How the values were obtained:
Assay type in all cases: cell-based, human
[1] = tested on: neurally differentiating hPSC cultures; test: Alternative FGF isoforms in HOX patterning protocol (flow cytometry, RT-PCR); conditions: for Sox2 and T (Brachyury) expression: FGF with CHIR, flow cytometry; for Hox1-5 paralog activation: two days of FGF/CHIR treatment, RT-PCR
Protocol: (FIG. 6A) Timeline of differentiation. […] (FIG. 6H) Agarose gel analysis for HOXgene expression after two days of FGF/CHR treatment in the protocol outlined in (FIG. 6A).
Specifically, FGF8a, 8b, and 8f, FGF17, FGF18, and FGF2 were used to execute our HOX patterning protocol on concurrent neurally differentiating hPSC cultures. The ability of alternative FGFs to recapitulate the effects of FGF8b was assessed by their ability to maintain a Sox2^+/T^+ neuromesodermal state while also inducing a similar rate of sequential HOXgene expression. Post FGF/CHIR addition, flow cytometry assays for Sox2 and T were performed, and the rate of sequential HOXgene expression was assessed by RT-PCR for a select panel of HOXgenes on collected mRNA samples.

[2] = tested on: neuromesodermal progenitors; test: Neuroectoderm or mesoderm fate transition of neuromesodermal progenitors by flow cytometry
Protocol: (§1) Assessment of neuroectoderm or mesoderm fate transition by flow cytometry. Grey histogram, IgG control; red histogram, antigen of interest. Data are presented as mean±standard deviation calculated from two biological replicates. (FIG. 8B) For experiments in panels FIGS. 8C-8F, neuromesodermal propagation was halted by removing FGF8b/CHIR 99021/GDF11 and adding RA. Assays were conducted after 4 days of RA treatment. (FIG. 8C) HOX profiles generated after RA treatment. Each gene is normalized to its maximum expression. Error bars are standard deviation calculated from duplicate reactions. (FIG. 8D) HoxB4 and HoxD10 expression in neuroepithelial cultures after RA treatment. Scale bars, 100 m. (FIG. 8E) Purity of Sox2, Pax6, HoxB4, and HoxD10 after 4 days of RA treatment. Sox2, Pax6, and HoxB4 were quantified using flow cytometry and HoxD10 was quantified by manual counting of dissociated cells ([…]). Error bars are standard deviation calculated from at least two biological replicates. […] (FIG. 8F) Motor neuron differentiation at cervical, thoracic, and lumbar spinal cord depths, where the motor neuron precursors show region-specific patterns of FoxP1, Isl1, and Hb9 co-expression. (FIG. 8G) Neuronal maturation from cervical, thoracic, and lumbar patterned NSCs, as assessed by immunocytochemistry (top panel; DAPI (blue) is overlaid in all images; Scale bars, 20 m) and RT-PCR (50 cycles; bottom panel).
(§2) Flow cytometry. Flow cytometry was conducted as described in the Examples above. Primary antibodies against Sox2 (mouse; 1:1000; Millipore), brachyury (goat; 1:200; R&D Systems), Pax6 (mouse; 1:200; DSHB), and HoxB4 (rat; 1:50; DSHB) were utilized. Samples were run on a FACSCaliber (BD Biosciences) and data were analyzed using Cyflogic software. Positive events were quantified by gating above the top 1% of species-matched IgG controls.
We next evaluated the transition of neuromesodermal progenitors to definitive neural progenitors. RA secreted from somites in response to declining FGF signaling elicits dorsal/ventral patterning and expression of the neuroectoderm marker Pax6 in vivo^16, 26, which led us to suspect RA serves as both the neuroectoderm fate switch and HOX ‘stop signal’. We first investigated the ability of RA to initiate neuroectoderm specification from neuromesodermal progenitors. […] At any point in neuromesodermal differentiation, the addition of RA generated highly pure (>83%) Pax6^+ neuroectoderm (FIGS. 8B-8E and FIGS. 9A-9C).

NSC cultures = test: Hox protein expression in NSC cultures after RA treatment (immunocytochemistry, flow cytometry)
Protocol: as §1
FIGS. 9A-9C (FIG. 9A) provides additional data showing that RA induces a neuroectodermal fate and halts colinear HOX activation, using the neural differentiation scheme shown in FIG. 8B and representative hindbrain cultures assessed by qPCR. (FIG. 9B) Representative hindbrain cultures assessed by immunocytochemistry. (FIG. 9C) Representative hindbrain cultures assessed by flow cytometry. All data are presented as mean±S.D. and qPCR data are normalized to the time point of maximum expression for each gene. For the hindbrain cultures, HoxB1 and HoxB4 were quantified by immunocytochemistry relative to DAPI+ nuclei, while Sox2 and Pax6 were quantified by flow cytometry. Scale bars, 100 m.
as §2
Immunocytochemistry. Immunocytochemistry was conducted as previously described. […]

H9 ishcat2 line = test: qPCR gene expression in H9 ishcat2 line (doxycycline-inducible β-catenin shRNA)
Protocol: Cell lines were passaged for differentiation on day −1 for all experiments (see Example 4 for details). (FIG. 4A) Timeline of H9 hESC differentiation corresponding to panels (FIG. 4B) and (FIG. 4C). RA, 1 μM; CHIR 99021, 3 μM; FGF8b, 100 ng/ml. (FIG. 4B) Gene expression analysis by RT-PCR. Control sample is E6 medium alone. (FIG. 4C) qPCR analysis at day 5 of differentiation normalized to the morphogen treatment that yielded maximum expression. Statistical significance was calculated using the Student's unpaired t-test relative to the sample with maximum expression (*, p<0.005; **, p<0.001). (FIG. 4D) qPCR analysis of gene expression at day 2 using the H9 ishcat2 line in the presence or absence of doxycycline (2 μg/ml) added 3 days prior to morphogen treatment. Data are normalized to doxycycline-free samples for each respective morphogen and statistical significance was calculated using the Student's unpaired t-test (*, p<0.01). (FIG. 4E) qPCR analysis of gene expression at day 5 using the H9 ishcat2 line in the presence or absence of doxycycline. Statistical significance was calculated using the Student's unpaired t-test (*, p<0.005). […] [HX531]=1 μM. Timeline shown on left panel.
(§3) qPCR. Total RNA was extracted from cultured cells using TRIZOL® (Life Technologies) according to the manufacturer's instructions. After isolation, 2-5 μg of total RNA was immediately subjected to reverse transcription using the Thermoscript™ RT-PCR kit (Life Technologies) in a 20 μL reaction according to the manufacturer's instructions. Resultant cDNA was diluted to 200 μL and utilized for qPCR (25 μL reactions, 1 μL cDNA per reaction) on a BioRad CFX96 detection unit using TAQMAN® Gene Expression Master Mix (Life Technologies) and TAQMAN® primers (Life Technologies). For all experiments, ΔΔCt values for each gene were calculated relative to ribosomal protein S18 (RPS18) RNA levels and converted to fold difference assuming 100% primer efficiency, then normalized to maximum expression levels as indicated in each figure legend.
To confirm the effects of CHIR 99021 were due to activation of β-catenin, we utilized the H9 ishcat2 line which harbors a doxycycline-inducible β-catenin shRNA cassette^23. […] We extended doxycycline with FGF8b/CHIR 99021 for 4 days and observed a reduction in HOXC6 by 9-fold, HOXC8 by 7-fold, and HOXC9 by 8-fold, which implicates β-catenin in HOX progression to caudal paralogs (FIG. 4E).

H9 hESCs = test: HOX, OTX2 and T gene expression by RT-PCR/qPCR during hESC differentiation with morphogens; conditions: HX531 1 μM; RT-PCR
Protocol: hPSC differentiation. hPSCs were washed once with phosphate-buffered saline (PBS; Invitrogen), dissociated with ACCUTASE® (Invitrogen) for 3 min, and collected by centrifugation. hPSCs were then seeded onto VTN-NC-coated plates in E8 medium containing 10 μM ROCK inhibitor (Y27632; R&D Systems). Seeding density was 2×10^5 cells/cm^2. The following day, the cells were switched to E6 medium (same composition as E8 medium minus FGF2 and TGFβ 1). Morphogen treatments were then carried out according to the figures in the text. Cells were supplemented with FGF8b (100-200 ng/ml; Peprotech), CHIR99021 (3-6 μM; Tocris), and/or RA (3 μM; Sigma).
Reverse transcriptase polymerase chain reaction (RT-PCR). Total RNA was extracted from cells using TRIZOL® reagent (Invitrogen) according to the manufacturer's instructions. RNA was then subjected to reverse-transcription using a Thermoscript™ RT-PCR kit (Invitrogen) in a 20 μL mixture according to the manufacturer's instructions. The resulting cDNA was then amplified in a 25 μL mixture containing 10×PCR buffer, 0.2 mM dNTP, 1.5 mM MgCl2, 0.5 μM of each primer, and 1 U Taq DNA polymerase (Invitrogen). Amplified products were resolved on 2% agarose gels containing SYBR Safe (Invitrogen) and visualized with a VersaDoc (BioRad). Primer sequences can be found in Table 3. All amplifications were carried out for 35 cycles. HOXC5 and HOXC6 were amplified at 58° C., all others with an annealing temperature of 55° C.
Propagation and differentiation of neuromesodermal progenitors. H9 hESCs (passage 25-45), H9 ishcat2 hESCs (passage 33-43), and IMR90-4 iPSCs (passage 31-40) were maintained in E8 medium on MATRIGEL© (BD Biosciences) as previously described. To initiate differentiation, hPSCs were passaged with ACCUTASE© (Life Technologies) onto vitronectin (VTN-NC)-coated plates at a density of 1×10^5 cells/cm^2 as previously described. The following day, cells were changed to E6 medium. 24 h later, cells were changed to E6 medium containing 200 ng/ml FGF8b (Peprotech). 24 h later, cells were washed once with 2 ml PBS, treated with ACCUTASE® for 2 min, and removed from the surface by gentle pipetting. After collection by centrifugation, cells were gently resuspended in E6 medium containing 200 ng/ml FGF8b and CHIR99021 (CHIR, concentration varied depending on cell line; Tocris) and re-seeded on VTN-NC-coated plates at a density of 1.5×10^5 cells/cm^2. Medium was not changed until 48 h after passaging. This passaging process was repeated on day 3 of CHIR 99021 treatment (re-seed density of 1.2×10^5 cells/cm^2) if extended neuromesodermal propagation was required, and 50 ng/ml GDF11 (Peprotech) was added on day 4 of CHIR 99021 treatment to initiate lumbar patterning. Cells were changed to E6 medium containing 1 μM retinoic acid (RA; Sigma) to facilitate neural transition.
as §3, with “Resultant cDNA was diluted to 200 μL and utilized for qPCR (25 μL reactions, 1 μL cDNA per reaction) on a BioRad CFX96 detection unit using TAQMAN® Gene Expression Master Mix (Life Technologies) and TAQMAN® primers (Life Technologies).” left out, “legend. […]” for “legend.”

[3] = neuromesodermal progenitors exposed to E6 medium with the substance
[4] = doxycycline prior to CHIR 99021 treatment, day 2
[5] = doxycycline with FGF8b/CHIR 99021 for 4 days

FGF2: fibroblast growth factor isoform used instead of FGF8b
Sox2 and T (Brachyury) expression [1]: nearly uniform expression of Sox2 and T (Brachyury)
Hox1-5 paralog activation [1]: activated Hox1-5 paralogs

CC1=C(/C=C/C(C)=C/C=C/C(C)=C/C(=O)O)C(C)(C)CCC1 [RA, retinoic acid]
Purity of Pax6+ neuroectoderm ([2]; RA added at any point in neuromesodermal differentiation): > 83%
Brachyury+ cells [2, 3]: 43±4%
Pax6+ cells [2, 3]: 97±3%
Sox2+ cells [2, 3]: 98±4%
HoxB4+ cells (NSC cultures; RA added 24 h later (within 24 h of HOXC9 induction)): 12±4%
HoxB4+ cells (NSC cultures; RA added between 24-48 h of neuromesodermal propagation): 84±10%

C[C@H]1c2cccc(O)c2C(=O)C2=C(O)[C@]3(O)C(=O)C(C(N)=O)=C(O)[C@@H](N(C)C)[C@@H]3[C@@H](O)[C@@H]21 [doxycycline]
CTNNB1 reduction (H9 ishcat2 line; RA-treated cells, day 2): 2 fold
CTNNB1 (β-catenin) expression reduction (H9 ishcat2 line; doxycycline 2 μg/ml prior to CHIR 99021 treatment, day 2): 2.5 fold
HOXA1 expression decrease (H9 ishcat2 line; [4]): 15 fold
HOXB1 expression decrease (H9 ishcat2 line; [4]): 47 fold
T reduction (H9 ishcat2 line; doxycycline with FGF8b/CHIR 99021, day 5): 30 fold
HOXC6 reduction (H9 ishcat2 line; [5]): 9 fold
HOXC8 reduction (H9 ishcat2 line; [5]): 7 fold
HOXC9 reduction (H9 ishcat2 line; [5]): 8 fold

CN1c2ccc([N+](=O)[O-])cc2N=C(c2ccc(C(=O)O)cc2)c2cc3c(cc21)C(C)(C)CCC3(C)C [HX531]
Effect on ability of FGF8b/CHIR 99021 to activate cervical and thoracic HOX paralogs (H9 hESCs): did not prevent

B1: FGF18: fibroblast growth factor isoform used instead of FGF8b (protein, UniProt O76093 28-207, looked up)
Fibroblast growth factor 18: EENVDFRIHVENQTRARDDVSRKQLRLYQLYSRTSGKHIQVLGRRISARGEDGDKYAQLLVETDTFGSQVRIKGKETEFYLCMNRKGKLVGKPDGTSKECVFIEKVLENNYTALMSAKYSGWYVGFTKKGRPRKGPKTRENQQDVHFMKRYPKGQPELQKPFKYTTVTKRSRRIRPTHPA
Sox2 and T (Brachyury) expression [1]: nearly uniform expression of Sox2 and T (Brachyury)
Hox1-5 paralog activation [1]: activated Hox1-5 paralogs

B2: FGF17: fibroblast growth factor isoform used instead of FGF8b (protein, UniProt O60258 23-216, looked up)
Fibroblast growth factor 17: TQGENHPSPNFNQYVRDQGAMTDQLSRRQIREYQLYSRTSGKHVQVTGRRISATAEDGNKFAKLIVETDTFGSRVRIKGAESEKYICMNKRGKLIGKPSGKSKDCVFTEIVLENNYTAFQNARHEGWFMAFTRQGRPRQASRSRQNQREAHFIKRLYQGQLPFPNHAEKQKQFEFVGSAPTRRTKRTRRPQPLT
Sox2 and T (Brachyury) expression [1]: nearly uniform expression of Sox2 and T (Brachyury)
Hox1-5 paralog activation [1]: activated Hox1-5 paralogs
